Measured values from patent US20170050957A1, “4-AMINO-6-(HETEROCYCLIC)PICOLINATES AND 6-AMINO-2-(HETEROCYCLIC)PYRIMIDINE-4-CARBOXYLATES AND THEIR USE AS HERBICIDES” (Dow AgroSciences LLC, priority 2013, published 2017).
Where two headings read alike, the source gives them in different places.

Tests used:
[1] = tested on: Key Broadleaf Weed and Crop Species; assay: Post-emergent Test II herbicidal activity (Table 15); assay type: in vivo; settings: post-emergence, 336 h, 14 d; for pest or weed control at 35 g/ha: 35 g ai/ha; for pest or weed control at 70 g/ha: 70 g ai/ha; for pest or weed control at 140 g/ha: 140 g ai/ha; for pest or weed control at 280 g/ha: 280 g ai/ha
Procedure, shortened: (§1)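 Plants at first-second true leaf stage, grown 7-21 d in greenhouse (~15 h photoperiod, 23-29 °C day), were track-sprayed at 187 L/ha with compound in acetone/DMSO/water/isopropanol/crop oil/Triton X-155 at a high rate plus 1/2× to 1/16× dilutions. Injury scored visually after 14 d versus untreated plants, 0 (none) to 100% (complete kill).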

[2] = tested on: Key Grass and Sedge Weeds as well as Grass Crops; assay: Post-emergent Test II herbicidal activity (Table 16); assay type: in vivo; settings: post-emergence, 336 h, 14 d; for pest or weed control at 35 g/ha: 35 g ai/ha; for pest or weed control at 70 g/ha: 70 g ai/ha; for pest or weed control at 140 g/ha: 140 g ai/ha; for pest or weed control at 280 g/ha: 280 g ai/ha
Procedure, shortened: as §1

[3] = Abutilon theophrasti, velvetleaf (Abutilon theophrasti), read-out: Visual Growth Reduction (%) 14 Days After Application, ABUTH
[4] = Amaranthus retroflexus, redroot pigweed (Amaranthus retroflexus), read-out: Visual Growth Reduction (%) 14 Days After Application, AMARE
[5] = Brassica napus, oilseed rape, canola (Brassica napus), read-out: Visual Growth Reduction (%) 14 Days After Application, BRSNN
[6] = Chenopodium album, lambsquarters (Chenopodium album), read-out: Visual Growth Reduction (%) 14 Days After Application, CHEAL
[7] = Euphorbia heterophylla, wild poinsettia (Euphorbia heterophylla), read-out: Visual Growth Reduction (%) 14 Days After Application, EPHHL
[8] = Helianthus annuus, sunflower (Helianthus annuus), read-out: Visual Growth Reduction (%) 14 Days After Application, HELAN
[9] = Cyperus esculentus, yellow nutsedge (Cyperus esculentus), read-out: Visual Growth Reduction (%) 14 Days After Application, CYPES
[10] = Echinochloa crus-galli, barnyardgrass (Echinochloa crus-galli), read-out: Visual Growth Reduction (%) 14 Days After Application, ECHCG
[11] = Oryza sativa, rice (Oryza sativa), read-out: Visual Growth Reduction (%) 14 Days After Application, ORYSA
[12] = Setaria faberi, giant foxtail (Setaria faberi), read-out: Visual Growth Reduction (%) 14 Days After Application, SETFA
[13] = Triticum aestivum, wheat, spring (Triticum aestivum), read-out: Visual Growth Reduction (%) 14 Days After Application, TRZAS
[14] = Zea mays, maize, corn (Zea mays), read-out: Visual Growth Reduction (%) 14 Days After Application, ZEAMX

With COC(=O)c1nc(-c2ccc3occc3c2)cc(N)c1Cl [Compound 2.03] the melting point was 84 to 87 °C, the pest or weed control at 35 g/ha [1, 3] was 95 to 100% and the pest or weed control at 70 g/ha [1, 3] was 95 to 100%. For the same molecule, the pest or weed control at 140 g/ha [1, 3] was 95 to 100%, the pest or weed control at 280 g/ha [1, 3] was 95 to 100% and the pest or weed control at 35 g/ha [1, 4] was 60 to 74%. For the same molecule, the pest or weed control at 70 g/ha [1, 4] was 85 to 94%, the pest or weed control at 140 g/ha [1, 4] was 85 to 94% and the pest or weed control at 280 g/ha [1, 4] was 95 to 100%. For the same molecule, the pest or weed control at 35 g/ha [1, 5] was 0 to 29%, the pest or weed control at 70 g/ha [1, 5] was 0 to 29% and the pest or weed control at 140 g/ha [1, 5] was 0 to 29%. For the same molecule, the pest or weed control at 280 g/ha [1, 5] was 30 to 44%, the pest or weed control at 35 g/ha [1, 6] was 85 to 94% and the pest or weed control at 70 g/ha [1, 6] was 95 to 100%. It also gave a pest or weed control at 140 g/ha [1, 6] of 95 to 100%, a pest or weed control at 280 g/ha [1, 6] of 95 to 100% and a pest or weed control at 35 g/ha [1, 7] of 45 to 59%. The pest or weed control at 70 g/ha [1, 7] was 75 to 84%, the pest or weed control at 140 g/ha [1, 7] was 75 to 84% and the pest or weed control at 280 g/ha [1, 7] was 85 to 94%. The pest or weed control at 35 g/ha [1, 8] was 0 to 29%, the pest or weed control at 70 g/ha [1, 8] was 60 to 74% and the pest or weed control at 140 g/ha [1, 8] was 75 to 84%. For the same molecule, the pest or weed control at 280 g/ha [1, 8] was 85 to 94%, the pest or weed control at 35 g/ha [2, 9] was 0 to 29% and the pest or weed control at 70 g/ha [2, 9] was 0 to 29%. The pest or weed control at 140 g/ha [2, 9] was 0 to 29%, the pest or weed control at 280 g/ha [2, 9] was 0 to 29% and the pest or weed control at 35 g/ha [2, 10] was 30 to 44%. The pest or weed control at 70 g/ha [2, 10] was 60 to 74%, the pest or weed control at 140 g/ha [2, 10] was 85 to 94% and the pest or weed control at 280 g/ha [2, 10] was 95 to 100%. For the same molecule, the pest or weed control at 35 g/ha [2, 11] was 0 to 29%, the pest or weed control at 70 g/ha [2, 11] was 0 to 29% and the pest or weed control at 140 g/ha [2, 11] was 0 to 29%. For the same molecule, the pest or weed control at 280 g/ha [2, 11] was 0 to 29%, the pest or weed control at 35 g/ha [2, 12] was 0 to 29% and the pest or weed control at 70 g/ha [2, 12] was 0 to 29%. The pest or weed control at 140 g/ha [2, 12] was 30 to 44%, the pest or weed control at 280 g/ha [2, 12] was 30 to 44% and the pest or weed control at 35 g/ha [2, 13] was 0 to 29%. It also gave a pest or weed control at 70 g/ha [2, 13] of 0 to 29%, a pest or weed control at 140 g/ha [2, 13] of 0 to 29% and a pest or weed control at 280 g/ha [2, 13] of 0 to 29%. The pest or weed control at 35 g/ha [2, 14] was 0 to 29%, the pest or weed control at 70 g/ha [2, 14] was 0 to 29% and the pest or weed control at 140 g/ha [2, 14] was 0 to 29%. For the same molecule, the pest or weed control at 280 g/ha [2, 14] was 60 to 74%.
